Assay results: paper PMC8359193, “Summary of reference chemicals evaluated by the fish short‐term reproduction assay, OECD TG229, using Japanese Medaka, Oryzias latipes” (Journal of Applied Toxicology, 2021)

Tested on: Japanese medaka (Oryzias latipes)
Assay: Fish short-term reproduction assay (FSTRA, OECD TG229), 21-day flow-through exposure
Conditions: for Fertility rate (%) / Mortality (%) Female / Mortality (%) Male / Number of fertilized eggs / Number of total eggs / SSC Female / VTG (ng/mg of liver) Female / VTG (ng/mg of liver) Male: 21 days; for GSI Female / GSI Male / HSI Female / HSI Male / Length Female / Length Male / Weight Female / Weight Male: at completion of exposure
Procedure, shortened: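 Japanese medaka (NIES-R strain, 16 ± 2 weeks old) were exposed in flow-through tanks for 3 weeks, three males and three females per tank, four replicate tanks per group, with a dilution water control. Concentrations were spaced by a factor of 2–5. Eggs were collected daily and counted as fertilized or unfertilized.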

Cc1cc(O)ccc1Cl [CMP, 4‐Chloro‐3‐methylphenol]
LOEC on VTG induction in male (in molarity) (hepatic VTG, 21-day exposure): 7.4 µM
LOEC (in molarity) for male VTG: times higher than that of E2 (in vivo): 110,000 times
Fertility rate (%) (measured conc. 108 μg/L): 94%
Mortality (%) Female (measured conc. 108 μg/L): 0%
Mortality (%) Male (measured conc. 108 μg/L): 0%
Number of fertilized eggs (measured conc. 108 μg/L): 24
Number of total eggs (measured conc. 108 μg/L): 26 ± 3.2 /female/day
SSC Female (measured conc. 108 μg/L): 0 ± 0
VTG (ng/mg of liver) Female (measured conc. 108 μg/L): 2,610 ± 265 ng/mg of liver
VTG (ng/mg of liver) Male (measured conc. 108 μg/L): 2.9 ± 4.4 ng/mg of liver
GSI Female (measured conc. 108 μg/L): 9.9%
GSI Male (measured conc. 108 μg/L): 0.80%
HSI Female (measured conc. 108 μg/L): 3.9%
HSI Male (measured conc. 108 μg/L): 1.9%
Length Female (measured conc. 108 μg/L): 36.5 mm
Length Male (measured conc. 108 μg/L): 36.0 mm
Weight Female (measured conc. 108 μg/L): 565 mg
Weight Male (measured conc. 108 μg/L): 498 mg
Fertility rate (%) (measured conc. 350 μg/L): 94%
Mortality (%) Female (measured conc. 350 μg/L): 0%
Mortality (%) Male (measured conc. 350 μg/L): 0%
Number of fertilized eggs (measured conc. 350 μg/L): 24
Number of total eggs (measured conc. 350 μg/L): 25 ± 3.9 /female/day
SSC Female (measured conc. 350 μg/L): 0 ± 0
VTG (ng/mg of liver) Female (measured conc. 350 μg/L): 2,650 ± 214 ng/mg of liver
VTG (ng/mg of liver) Male (measured conc. 350 μg/L): 9.9 ± 18.3 ng/mg of liver
GSI Female (measured conc. 350 μg/L): 9.8%
GSI Male (measured conc. 350 μg/L): 0.68%
HSI Female (measured conc. 350 μg/L): 4.4%
HSI Male (measured conc. 350 μg/L): 2.4%
Length Female (measured conc. 350 μg/L): 35.4 mm
Length Male (measured conc. 350 μg/L): 36.4 mm
Weight Female (measured conc. 350 μg/L): 509 mg
Weight Male (measured conc. 350 μg/L): 529 mg
Fertility rate (%) (measured conc. 1,060 μg/L): 93%
Mortality (%) Female (measured conc. 1,060 μg/L): 8.3%
Mortality (%) Male (measured conc. 1,060 μg/L): 0%
Number of fertilized eggs (measured conc. 1,060 μg/L): 23
Number of total eggs (measured conc. 1,060 μg/L): 25 ± 2.3 /female/day
SSC Female (measured conc. 1,060 μg/L): 0 ± 0
VTG (ng/mg of liver) Female (measured conc. 1,060 μg/L): 3,020 ± 702 ng/mg of liver
VTG (ng/mg of liver) Male (measured conc. 1,060 μg/L): 33.8 ± 37.0 ng/mg of liver
GSI Female (measured conc. 1,060 μg/L): 9.9%
GSI Male (measured conc. 1,060 μg/L): 0.74%
HSI Female (measured conc. 1,060 μg/L): 3.9%
HSI Male (measured conc. 1,060 μg/L): 2.0%
Length Female (measured conc. 1,060 μg/L): 35.2 mm
Length Male (measured conc. 1,060 μg/L): 36.3 mm
Weight Female (measured conc. 1,060 μg/L): 509 mg
Weight Male (measured conc. 1,060 μg/L): 505 mg
effect on fecundity (number of total eggs), in words (within the test concentrations, 21-day exposure): No effect
